Reference: US20150051078A1, “Glyphosate tank mix adjuvant comprising a base selected from a carbonate and/or a phosphate” (priority 2012, published 2015)

Columns and labels:
[1] = Description: The volatility was determined by analyzing the loss of material by HLPL at 70° C. after 24 h at atmospheric pressure and the loss is summarized in Table 5. The application rate was 500 g/ha dicamba (free acid), 1000 g/ha potassium glyphosate, 300 g/ha Genamin® T050 (“Ad2”, 300 g/ha Preference® (“Ad3”) and optionally 250, 500 or 1000 g/ha K2CO3. Deionised water (hardness<1° dH) was used to prepare the samples. Dicamba BAPMA refers to the bis(3-aminopropyl)methylamine salt of dicamba.
[2] = system: Soya (glycine max) Variant Deltapine, genetically engineered to resist glyphosate; assay type: in vivo; conditions: conclusion from Table 4
Description: For the greenhouse tests, maize (cultivar Amadeo) and Chenopodium album was sown or potted in loamy sandy soil to a depth of 1-2 cm. When the plants had reached a growth height of 10 to 25 cm (around 10 to 21 days after sowing), the spray mixtures were applied to the plants in a spraying cabin.
The temperatures in the experimental period, which lasted for 3 to 4 weeks, were between 18-35° C. During this time, the experimental plants received optimum watering, with nutrients being supplied via the water used for watering.
The herbicidal activity was evaluated by awarding scores to the treated plants in comparison to the untreated control plants (Table 1 and 2). The evaluation scale ranges from 0% to 100% activity. 100% activity means the complete death at least of those parts of the plant that are above ground. Conversely, 0% activity means that there were no differences between treated and untreated plants.
The biological evaluation was made as described in Example 6. The tank mixes were applied at a application rate of 375 l/ha (125 or 250 g of glyphosate free acid/ha and 300 g of adjuvant/ha). The adjuvant Ad1 is an aqeuous solution of 200 g/l Genamin® T150 (a tallow fatty amine ethoxylate with 15 EO). The adjuvant Ad2 is Genamin® T050 (a tallow fatty amine ethoxylate with 5 EO).
Soya (glycine max) Variant Deltapine was genetically engineered to resist glyphosate.

## CN(CCCN)CCCN.COc1c(Cl)ccc(Cl)c1C(=O)O [Dicamba BAPMA, bis(3-aminopropyl)methylamine salt of dicamba]
[1]; 70° C., 24 h, atmospheric pressure, 500 g/ha dicamba (free acid), deionised water
  Loss of dicamba, Loss (wt %): <1 wt %
[1]; deionised water (hardness<1° dH)
  pH of tank mix: 6.3

## O=C([O-])[O-].[K+].[K+] [Example K2CO3, K2CO3]
[2]
  phytotoxity effect on plants of addition of K2CO3: no phytotoxity effect
